From US7067251B2 (priority 2000, dated 2006)

Columns and labels:
[1] = system: naïve T cells; type: cell-based, Human
[2] = system: Mouse splenic T cells activated by plate bound anti-CD3 antibody; settings: cited from earlier work
[3] = system: vEL/tk; type: cell-based, vaccinia virus
[4] = system: Hutk^− cell line
[5] = system: vaccinia WR; type: cell-based, vaccinia virus
[6] = system: v7.5/tk; type: cell-based, vaccinia virus

Structure (SMILES) | Killing of the total number of T cells [1] [%] | T cell death [2] [%] | Concentration sufficient to inhibit plaque formation [3] [mM] | Plaque formation [3] | Viability of the cells [4] | Concentration sufficient to interfere with the ability to plaque [5] [mM] | Concentration sufficient to inhibit plaque formation [6] [mM]
Cn1cc(C2=C(c3cn(CCCN)c4ccccc34)C(=O)NC2=O)c2ccccc21 [Bis VIII, Bisindolylmaleimide VIII] | 95 | ~100 |  |  |  |  | 
O=c1[nH]c(=O)n([C@H]2C[C@H](O)[C@@H](CO)O2)cc1Br [bromodeoxyuridine] |  |  | 125 | an equal number of plaques, albeit much smaller in size | does not interfere with the viability of the cells | 25 | 125
